Patent US20230201216A1, “AZELASTINE AS ANTIVIRAL TREATMENT” (priority 2020, published 2023)
Where a name gives a salt, the structure may show the parent alone. Read-outs that look alike come from different tables or passages of the source.

Experiments:
SARS-CoV-2 [1] = conditions: without virus infection; MucilAir
SARS-CoV-2 B.1.351 = type: cell-based
SARS-CoV-2 [2] = type: cell-based; conditions: for viral particle/μL, co-administration / viral particle/μL, post-infection administration: Vero E6, 48 h post infection, median; for reduction of viral particle numbers (up to): Vero E6
SARS-CoV-2 [3] = type: cell-based
[4] = tested on: MucilAir human nasal epithelial cells
influenza H1N1 = type: cell-based; conditions: 24 h post-infection, compared to buffer treated cells
SARS-CoV-2 [5] = type: cell-based; conditions: for cytopathic effect (CPE) score: Vero E6, MOI 0.1, 48 hours post infection; for protective effect against SARS-CoV-2 cytopathic effect: Vero E6
RANTES = type: cell-based, human
IL-8 = type: cell-based, human
RSV Long strain = experiment: RSV infection of HEp-2 cells, spot count and viral genome copy number by RT-PCR; type: cell-based, Respiratory Syncytial Virus; conditions: for RSV infection of cells by spot count, compared to vehicle (DMSO) treated controls: all 3 settings, HEp-2
SARS-CoV-2 [6] = conditions: cells expressing TMPRSS2, including Calu-3; ref. Hoffmann et al.; cited from earlier work

In the case of `CN1CCCC(n2nc(Cc3ccc(Cl)cc3)c3ccccc3c2=O)CC1` (centres unmarked) [Azelastine, 4-[(4-chlorophenyl)methyl]-2-(1-methylazepan-4-yl)phthalazin-1-one], the “tissue morphology of treated versus control cells” value (SARS-CoV-2 [1]) is reported as “No difference in tissue morphology”, the “inhibition (low viral numbers)” value (SARS-CoV-2 B.1.351) is reported as “over 90%” and the “viral particle/μL, co-administration” value (SARS-CoV-2 [2]; 3.125 μM) is reported as 98.4 viral particle/μL. The “viral particle/μL, post-infection administration” value (SARS-CoV-2 [2]; 3.125 μM) was 138 viral particle/μL, the “viral particle/μL, co-administration” value (SARS-CoV-2 [2]; 6.25 μM) was 15.45 viral particle/μL and the “viral particle/μL, post-infection administration” value (SARS-CoV-2 [2]; 6.25 μM) was 68.4 viral particle/μL. The “viral particle/μL, co-administration” value (SARS-CoV-2 [2]; 12.5 μM) was 12.25 viral particle/μL, the “viral particle/μL, post-infection administration” value (SARS-CoV-2 [2]; 12.5 μM) was 52 viral particle/μL and the “viral particle/μL, co-administration” value (SARS-CoV-2 [2]; 25 μM) was 0.2 viral particle/μL. For the same compound, the “viral particle/μL, post-infection administration” value (SARS-CoV-2 [2]; 25 μM) was 6.865 viral particle/μL, the “reduction of viral particle numbers (up to)” value (from here on “reduction … (up to)”) (SARS-CoV-2 [2]; co-administration (simulating prevention)) was > 99% and the “reduction … (up to)” value (SARS-CoV-2 [2]; post-infection administration (post-exposure or therapy)) was > 97%.
In the case of `CN1CCCC(n2nc(Cc3ccc(Cl)cc3)c3ccccc3c2=O)CC1` (centres unmarked) [Azelastine-HCl], the “reduction of viral particle numbers” value (SARS-CoV-2 [3]) is reported as “over 90%”, the “reduction … (up to)” value (SARS-CoV-2 [3]; 50 μM, Calu-3, MOI 0.01, 48 h) is reported as > 99% and the cytotoxicity ([4]; 0.02% concentration, infected cells) is reported as “no cytotoxicity”. The cytotoxicity ([4]; 0.02% concentration, non-infected cells) was 6.5%, the cytotoxicity ([4]; lower (0.01%) concentration) was “no cytotoxicity” and the “decrease in the viral copy” value (influenza H1N1; 0.01% azelastine-HCl) was ~0.9 log. The “reduction of viral genome copy” value (influenza H1N1; 0.01% azelastine-HCl) was 87.4%, the “decrease in the viral copy” value (influenza H1N1; 0.02% azelastine-HCl) was ~1.9 log and the “reduction of viral genome copy” value (influenza H1N1; 0.02% azelastine-HCl) was 98.74%. For the same compound, the “cytopathic effect (CPE) score” value (SARS-CoV-2 [5]; 3.125 μM) was 2, the “cytopathic effect (CPE) score” value (SARS-CoV-2 [5]; 6.25 μM) was 2 and the “RANTES levels compared to buffer control” value (RANTES) was “significantly reduced”. For the same compound, the “IL-8 levels compared to buffer control” value (IL-8) was “significantly reduced”, the “RSV infection of cells by spot count, compared to vehicle (DMSO) treated controls” value (RSV Long strain; 3.2 μM) was ~50% and the “RSV infection of cells by spot count, compared to vehicle (DMSO) treated controls” value (RSV Long strain; 6.4 μM) was ~50%. The “Viral genome copy relative to DMSO” value (RSV Long strain; 6.4 μM, co-administration, experiment #1) was 46.65%, the “Viral genome copy relative to DMSO” value (RSV Long strain; 6.4 μM, co-administration, experiment #2) was 53.22% and the “Viral genome copy relative to DMSO” value (RSV Long strain; 6.4 μM, preventive, experiment #1) was 65.52%. The “Viral genome copy relative to DMSO” value (RSV Long strain; 6.4 μM, preventive, experiment #2) was 54.71%, the “Viral genome copy relative to DMSO” value (RSV Long strain; 6.4 μM, therapeutic, experiment #1) was 47.96% and the “Viral genome copy relative to DMSO” value (RSV Long strain; 6.4 μM, therapeutic, experiment #2) was 51.05%.
For `CCN(CCO)CCCC(C)Nc1ccnc2cc(Cl)ccc12` (centres unmarked) [Hydroxychloroquine sulfate], the “potency on cells expressing the surface protease TMPRSS2” value (SARS-CoV-2 [6]) is listed as “significantly loses its potency”.
For Maraviroc, the “cytopathic effect (CPE) score” value (SARS-CoV-2 [5]; 3.125 μM) was 4, the “cytopathic effect (CPE) score” value (SARS-CoV-2 [5]; 6.25 μM) was 4 and the “cytopathic effect (CPE) score” value (SARS-CoV-2 [5]; 12.5 μM) was 3. For the same compound, the “cytopathic effect (CPE) score” value (SARS-CoV-2 [5]; 25 μM) was 3, the “cytopathic effect (CPE) score” value (SARS-CoV-2 [5]; 50 μM) was 3 and the “protective effect against SARS-CoV-2 cytopathic effect” value (SARS-CoV-2 [5]; higher concentrations (12.5 to 50 μM)) was “only marginal protective effect”. The “protective effect against SARS-CoV-2 cytopathic effect” value (SARS-CoV-2 [5]; lower concentrations) was “not effective at all”.
